Test results: PubChem BioAssay (NCI)
Values joined by “and” are separate entries in the source; they are usually repeats but may differ in a detail not shown here. Equal values may be shown once.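 Five compound concentrations were applied to cells in 96-well plates for 48 hours; endpoints were derived by simple linear interpolation of the resulting dose-response curve. Here, GI50 denotes the concentration required for 50% inhibition of growth. TGI denotes the concentration required for complete inhibition of growth.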

Legend:
Test in all cases: NCI-60 cell line screen, 48 h
K-562 leukemia = tested on: K-562 leukemia
EKVX NSCLC = tested on: EKVX NSCLC
SN12C renal = tested on: SN12C renal
OVCAR-5 ovarian = tested on: OVCAR-5 ovarian
OVCAR-3 ovarian = tested on: OVCAR-3 ovarian
MALME-3M melanoma = tested on: MALME-3M melanoma
M14 melanoma = tested on: M14 melanoma
DLD-1 colon = tested on: DLD-1 colon
SK-MEL-28 melanoma = tested on: SK-MEL-28 melanoma
UACC-257 melanoma = tested on: UACC-257 melanoma
DMS 273 small cell lung = tested on: DMS 273 small cell lung
SF-295 CNS = tested on: SF-295 CNS
XF 498 CNS = tested on: XF 498 CNS
SK-MEL-2 melanoma = tested on: SK-MEL-2 melanoma
SF-268 CNS = tested on: SF-268 CNS
IGROV1 ovarian = tested on: IGROV1 ovarian
NCI-H460 lung = tested on: NCI-H460 lung
HL-60(TB) leukemia = tested on: HL-60(TB) leukemia
SNB-19 CNS = tested on: SNB-19 CNS
COLO 205 colon = tested on: COLO 205 colon
SW-620 colon = tested on: SW-620 colon
KM20L2 colon = tested on: KM20L2 colon
ACHN renal = tested on: ACHN renal
RXF 393 renal = tested on: RXF 393 renal
LOX IMVI melanoma = tested on: LOX IMVI melanoma
NCI-H226 lung = tested on: NCI-H226 lung
SK-MEL-5 melanoma = tested on: SK-MEL-5 melanoma
SNB-78 CNS = tested on: SNB-78 CNS
786-0 renal = tested on: 786-0 renal
SK-OV-3 ovarian = tested on: SK-OV-3 ovarian
NCI-H23 lung = tested on: NCI-H23 lung
HCC-2998 colon = tested on: HCC-2998 colon
OVCAR-8 ovarian = tested on: OVCAR-8 ovarian
A498 renal = tested on: A498 renal
HOP-18 NSCLC = tested on: HOP-18 NSCLC
HT29 colon = tested on: HT29 colon
SNB-75 CNS = tested on: SNB-75 CNS
OVCAR-4 ovarian = tested on: OVCAR-4 ovarian
M19-MEL melanoma = tested on: M19-MEL melanoma
TK-10 renal = tested on: TK-10 renal
A549 NSCLC = tested on: A549 NSCLC
UACC-62 melanoma = tested on: UACC-62 melanoma
CAKI-1 renal = tested on: CAKI-1 renal
CCRF-CEM leukemia = tested on: CCRF-CEM leukemia
MOLT-4 leukemia = tested on: MOLT-4 leukemia
RXF-631 renal = tested on: RXF-631 renal
HCT-116 colon = tested on: HCT-116 colon
DMS 114 small cell lung = tested on: DMS 114 small cell lung
LXFL 529 NSCLC = tested on: LXFL 529 NSCLC
NCI-H522 lung = tested on: NCI-H522 lung
SF-539 CNS = tested on: SF-539 CNS
KM12 colon = tested on: KM12 colon
SR leukemia = tested on: SR leukemia
U251 CNS = tested on: U251 CNS
HOP-62 NSCLC = tested on: HOP-62 NSCLC
UO-31 renal = tested on: UO-31 renal
HCT-15 colon = tested on: HCT-15 colon
RPMI-8226 leukemia = tested on: RPMI-8226 leukemia
HOP-92 NSCLC = tested on: HOP-92 NSCLC

Work on COC1OC(COC(C)=O)C(OC(C)=O)C(OC(C)=O)C1NC(=O)N(CCCl)N=O (stereo unspecified) yielded a TGI (K-562 leukemia) greater than 100 µM, a TGI (EKVX NSCLC) greater than 100 µM and a TGI (SN12C renal) greater than 100 µM. The TGI (OVCAR-5 ovarian) was greater than 100 µM, the TGI (OVCAR-3 ovarian) was greater than 100 µM and the TGI (MALME-3M melanoma) was greater than 100 µM. The TGI (M14 melanoma) was greater than 100 µM, the TGI (DLD-1 colon) was greater than 100 µM and the TGI (SK-MEL-28 melanoma) was greater than 100 µM. For the same compound, the TGI (UACC-257 melanoma) was greater than 100 µM, the TGI (DMS 273 small cell lung) was greater than 100 µM and the TGI (SF-295 CNS) was greater than 100 µM. The TGI (XF 498 CNS) was greater than 100 µM, the TGI (SK-MEL-2 melanoma) was greater than 100 µM and the TGI (SF-268 CNS) was greater than 100 µM. For the same compound, the TGI (IGROV1 ovarian) was greater than 100 µM, the TGI (NCI-H460 lung) was greater than 100 µM and the TGI (HL-60(TB) leukemia) was 74 µM and > 100 µM. The TGI (SNB-19 CNS) was greater than 100 µM, the TGI (COLO 205 colon) was greater than 100 µM and the TGI (SW-620 colon) was greater than 100 µM. The TGI (KM20L2 colon) was greater than 100 µM, the TGI (ACHN renal) was greater than 100 µM and the TGI (RXF 393 renal) was greater than 100 µM. The TGI (LOX IMVI melanoma) was greater than 100 µM, the TGI (NCI-H226 lung) was greater than 100 µM and the TGI (SK-MEL-5 melanoma) was greater than 100 µM. The TGI (SNB-78 CNS) was greater than 100 µM, the TGI (786-0 renal) was greater than 100 µM and the TGI (SK-OV-3 ovarian) was greater than 100 µM. For the same compound, the TGI (NCI-H23 lung) was greater than 100 µM, the TGI (HCC-2998 colon) was greater than 100 µM and the TGI (OVCAR-8 ovarian) was greater than 100 µM. For the same compound, the TGI (A498 renal) was greater than 100 µM, the TGI (HOP-18 NSCLC) was greater than 100 µM and the TGI (HT29 colon) was greater than 100 µM. It also gave a TGI (SNB-75 CNS) greater than 100 µM, a TGI (OVCAR-4 ovarian) greater than 100 µM and a TGI (M19-MEL melanoma) greater than 100 µM. For the same compound, the TGI (TK-10 renal) was greater than 100 µM, the TGI (A549 NSCLC) was greater than 100 µM and the TGI (UACC-62 melanoma) was greater than 100 µM. The TGI (CAKI-1 renal) was greater than 100 µM, the GI50 (CCRF-CEM leukemia) was 15.2 µM and 90.3 µM and the TGI (CCRF-CEM leukemia) was greater than 100 µM. The GI50 (MOLT-4 leukemia) was 26.2 µM and > 100 µM, the TGI (MOLT-4 leukemia) was greater than 100 µM and the TGI (RXF-631 renal) was greater than 100 µM. It also gave a TGI (HCT-116 colon) greater than 100 µM, a TGI (DMS 114 small cell lung) greater than 100 µM and a TGI (LXFL 529 NSCLC) greater than 100 µM. The TGI (NCI-H522 lung) was greater than 100 µM, the GI50 (SF-539 CNS) was > 100 µM and 24.7 µM and the TGI (SF-539 CNS) was > 100 µM and 91.7 µM. It also gave a TGI (KM12 colon) greater than 100 µM.

Clc1cccc(Cl)c1C1SCc2nc3ccccc3n21 (stereo unspecified) showed a TGI (K-562 leukemia) greater than 100 µM, a TGI (EKVX NSCLC) greater than 100 µM and a TGI (SN12C renal) greater than 100 µM. It also gave a TGI (OVCAR-5 ovarian) greater than 100 µM, a TGI (SR leukemia) greater than 100 µM and a TGI (OVCAR-3 ovarian) greater than 100 µM. For the same compound, the TGI (MALME-3M melanoma) was greater than 100 µM, the TGI (M14 melanoma) was greater than 100 µM and the TGI (DLD-1 colon) was greater than 100 µM. The TGI (UACC-257 melanoma) was greater than 100 µM, the TGI (U251 CNS) was greater than 100 µM and the TGI (DMS 273 small cell lung) was greater than 100 µM. It also gave a TGI (SF-295 CNS) greater than 100 µM, a TGI (XF 498 CNS) greater than 100 µM and a TGI (SF-268 CNS) greater than 100 µM. For the same compound, the TGI (IGROV1 ovarian) was greater than 100 µM, the TGI (NCI-H460 lung) was greater than 100 µM and the TGI (HL-60(TB) leukemia) was greater than 100 µM. For the same compound, the TGI (SNB-19 CNS) was greater than 100 µM, the TGI (COLO 205 colon) was greater than 100 µM and the TGI (SW-620 colon) was greater than 100 µM. For the same compound, the TGI (KM20L2 colon) was greater than 100 µM, the TGI (ACHN renal) was greater than 100 µM and the TGI (RXF 393 renal) was greater than 100 µM. The TGI (LOX IMVI melanoma) was greater than 100 µM, the TGI (NCI-H226 lung) was greater than 100 µM and the TGI (SK-MEL-5 melanoma) was 67 µM. It also gave a TGI (HOP-62 NSCLC) greater than 100 µM, a TGI (SNB-78 CNS) greater than 100 µM and a TGI (786-0 renal) greater than 100 µM. For the same compound, the TGI (SK-OV-3 ovarian) was greater than 100 µM, the TGI (NCI-H23 lung) was greater than 100 µM and the TGI (HCC-2998 colon) was greater than 100 µM. It also gave a TGI (OVCAR-8 ovarian) greater than 100 µM, a TGI (A498 renal) greater than 100 µM and a TGI (HOP-18 NSCLC) greater than 100 µM. The TGI (HT29 colon) was greater than 100 µM, the TGI (SNB-75 CNS) was greater than 100 µM and the TGI (OVCAR-4 ovarian) was greater than 100 µM. The TGI (M19-MEL melanoma) was greater than 100 µM, the TGI (TK-10 renal) was greater than 100 µM and the TGI (A549 NSCLC) was greater than 100 µM. The TGI (UO-31 renal) was greater than 100 µM, the TGI (UACC-62 melanoma) was greater than 100 µM and the TGI (HCT-15 colon) was greater than 100 µM. The TGI (CAKI-1 renal) was greater than 100 µM, the TGI (RPMI-8226 leukemia) was greater than 100 µM and the TGI (CCRF-CEM leukemia) was greater than 100 µM. For the same compound, the TGI (HOP-92 NSCLC) was greater than 100 µM, the TGI (MOLT-4 leukemia) was greater than 100 µM and the TGI (RXF-631 renal) was 41.7 µM. The TGI (HCT-116 colon) was greater than 100 µM, the TGI (DMS 114 small cell lung) was greater than 100 µM and the TGI (LXFL 529 NSCLC) was greater than 100 µM. It also gave a TGI (NCI-H522 lung) greater than 100 µM, a TGI (SF-539 CNS) greater than 100 µM and a TGI (KM12 colon) greater than 100 µM.

Compound CNc1ccccc1-c1nc2ccccc2c(=O)o1 has a TGI (K-562 leukemia) greater than 100 µM, a TGI (EKVX NSCLC) greater than 100 µM and a TGI (SN12C renal) greater than 100 µM. The TGI (OVCAR-5 ovarian) was greater than 100 µM, the TGI (SR leukemia) was greater than 100 µM and the TGI (MALME-3M melanoma) was greater than 100 µM. It also gave a TGI (M14 melanoma) greater than 100 µM, a TGI (DLD-1 colon) greater than 100 µM and a TGI (SK-MEL-28 melanoma) greater than 100 µM. The TGI (UACC-257 melanoma) was greater than 100 µM, the TGI (U251 CNS) was greater than 100 µM and the TGI (DMS 273 small cell lung) was greater than 100 µM. It also gave a TGI (SF-295 CNS) greater than 100 µM, a TGI (XF 498 CNS) greater than 100 µM and a TGI (SK-MEL-2 melanoma) greater than 100 µM. The TGI (SF-268 CNS) was greater than 100 µM, the TGI (IGROV1 ovarian) was greater than 100 µM and the TGI (NCI-H460 lung) was greater than 100 µM. For the same compound, the TGI (HL-60(TB) leukemia) was greater than 100 µM, the TGI (SNB-19 CNS) was greater than 100 µM and the TGI (COLO 205 colon) was greater than 100 µM. For the same compound, the TGI (SW-620 colon) was greater than 100 µM, the TGI (KM20L2 colon) was greater than 100 µM and the TGI (ACHN renal) was greater than 100 µM. It also gave a TGI (LOX IMVI melanoma) greater than 100 µM, a TGI (NCI-H226 lung) greater than 100 µM and a TGI (SK-MEL-5 melanoma) greater than 100 µM. It also gave a TGI (SNB-78 CNS) greater than 100 µM, a TGI (SK-OV-3 ovarian) greater than 100 µM and a TGI (HCC-2998 colon) greater than 100 µM. It also gave a TGI (OVCAR-8 ovarian) greater than 100 µM, a TGI (HOP-18 NSCLC) greater than 100 µM and a TGI (SNB-75 CNS) of 97.6 µM. For the same compound, the TGI (OVCAR-4 ovarian) was greater than 100 µM, the TGI (M19-MEL melanoma) was greater than 100 µM and the TGI (TK-10 renal) was greater than 100 µM. For the same compound, the TGI (A549 NSCLC) was greater than 100 µM, the TGI (UO-31 renal) was greater than 100 µM and the TGI (HCT-15 colon) was greater than 100 µM. For the same compound, the TGI (CAKI-1 renal) was greater than 100 µM, the TGI (RPMI-8226 leukemia) was greater than 100 µM and the TGI (CCRF-CEM leukemia) was greater than 100 µM. The TGI (MOLT-4 leukemia) was greater than 100 µM, the TGI (RXF-631 renal) was greater than 100 µM and the TGI (HCT-116 colon) was greater than 100 µM. The TGI (DMS 114 small cell lung) was greater than 100 µM, the TGI (LXFL 529 NSCLC) was greater than 100 µM and the TGI (SF-539 CNS) was greater than 100 µM. It also gave a TGI (KM12 colon) greater than 100 µM.
